SMILES strings stand for the structures. Activity calls are given as the source filed them. The rule behind the calls is not given here.

As a reminder, the IC50 is the concentration that gives 50% inhibition.

In series [1] the test system is MDA-MB-231. Nature of the series: Antimigratory activity against human MDA-MB-231 cells assessed as reduction in formation of tubule-like structures at 275 nM after 16 hrs by matrigel assay relative to untreated control. Type of series: functional. Also on record: scale not given: the % may be the effect or the level left.
For series [2], the system named is HepG2. Put plainly: Inhibition of TGF-beta-induced human CTGF promoter activity transiently transfected in human HepG2 cells assessed as reduction in alpha-smooth muscle actin expression preincubated at 3.2 uM for 1 hr before TGF-beta stimulation measured after 6 hrs by quantitative real-time PCR analysis. It is filed as cell-based.
For series [3], the system named is HepG2. Nature of the series: Cytotoxicity against human HepG2 cells at 3.2 uM after 48 hrs by XTT assay. As to conditions: hepg2, 48 h. It is filed as cell-based. (Tetrazolium dyes change colour on reduction, which living cells bring about.)
In series [4] the test system is MDA-MB-231. Put plainly: Antimigratory activity against human MDA-MB-231 cells assessed as reduction in formation of tubule-like structures at 2.4 uM after 16 hrs by matrigel assay relative to control. It is filed as functional, cell-based.
Series [5] concerns MDA-MB-231. Put plainly: Antimigratory activity against human MDA-MB-231 cells assessed as reduction in formation of tubule-like structures after 16 hrs by matrigel assay relative to control. It is filed as functional, cell-based.
The test system of series [6] is HepG2. Put plainly: Inhibition of TGF-beta-induced human CTGF promoter activity transiently transfected in human HepG2 cells assessed as reduction in tgf-beta expression preincubated at 3.2 uM for 1 hr before TGF-beta stimulation measured after 6 hrs by quantitative real-time PCR analysis. It is filed as cell-based.
In series [7] the test system is HepG2. Nature of the series: Inhibition of TGF-beta-induced human CTGF promoter activity transiently transfected in human HepG2 cells assessed as CTGF expression preincubated at 3.2 uM for 1 hr before TGF-beta stimulation measured after 4 hrs by quantitative real-time PCR analysis. It is filed as cell-based.
The test system of series [8] is HepG2. Put plainly: Inhibition of TGF-beta-induced human CTGF promoter activity transiently transfected in human HepG2 cells assessed as CTGF protein expression preincubated at 3144 nM for 1 hr before TGF-beta stimulation measured after 8 hrs by Western blot analysis. It is filed as cell-based. A general note: A western blot detects proteins with antibodies after separation by electrophoresis.

Series [9] concerns HepG2. Put plainly: Inhibition of TGF-beta-induced human CTGF promoter activity transiently transfected in human HepG2 cells assessed as reduction in plasminogen activator inhibitor-1 expression preincubated at 3.2 uM for 1 hr before TGF-beta stimulation measured after 6 hrs by quantitative real-time PCR analysis. Type of series: cell-based. (In general: Quantitative PCR measures a nucleic acid by following its amplification.)

Series [10] concerns HepG2. Put plainly: Inhibition of TGF-beta-induced human CTGF promoter activity transiently transfected in human HepG2 cells assessed as reduction in mmp2 expression preincubated at 3.2 uM for 1 hr before TGF-beta stimulation measured after 6 hrs by quantitative real-time PCR analysis. Type of series: cell-based.
Series [11] concerns HepG2. Nature of the series: Inhibition of TGF-beta-induced human CTGF promoter activity transiently transfected in human HepG2 cells assessed as reduction in type 1 collagen alpha1 expression preincubated at 3.2 uM for 1 hr before TGF-beta stimulation measured after 6 hrs by quantitative real-time PCR analysis. Type of series: cell-based.
For series [12], the system named is HepG2. Put plainly: (§1) Inhibition of TGF-beta-induced human CTGF promoter activity transiently transfected in human HepG2 cells after 16 hrs by luciferase reporter assay. Type of series: cell-based.
Series [13] in a line: as §1. As to conditions: HepG2, 16 h. It is filed as cell-based.
Series [14] has as its system HepG2. Put plainly: Binding affinity to (AGCCAGACA)9-MLP element (unknown origin) transiently transfected in human HepG2 cells assessed as inhibition of TGF-beta-induced Smad-dependent transcriptional activity measured as remaining activity preincubated at 2.2 uM for 1 hr before TGF-beta stimulation measured after 16 hrs by luciferase reporter assay. Type of series: cell-based.

The subject of series [15] is MDA-MB-231. Nature of the series: Cytotoxicity against human MDA-MB-231 cells at 3.2 uM after 48 hrs by XTT assay. As to conditions: mda-mb-231, 48 h. Type of series: cell-based.
A short description of series [16]: Binding affinity to (AGCCAGACA)9-MLP element (unknown origin) transiently transfected in human HepG2 cells assessed as inhibition of TGF-beta-induced Smad-dependent transcriptional activity preincubated for 1 hr before TGF-beta stimulation measured after 16 hrs by luciferase reporter assay. Type of series: cell-based.
Series [17] has as its system HepG2. Nature of the series: Inhibition of TGF-beta-induced human CTGF promoter activity transiently transfected in human HepG2 cells assessed as reduction in tgf-beta expression preincubated at 680 nM for 1 hr before TGF-beta stimulation measured after 6 hrs by quantitative real-time PCR analysis. It is filed as cell-based.
The test system of series [18] is HepG2. Put plainly: Inhibition of TGF-beta-induced human CTGF promoter activity transiently transfected in human HepG2 cells assessed as reduction in type 1 collagen alpha1 expression preincubated at 680 nM for 1 hr before TGF-beta stimulation measured after 6 hrs by quantitative real-time PCR analysis. It is filed as cell-based.
The test system of series [19] is HepG2. Put plainly: Inhibition of TGF-beta-induced human CTGF promoter activity transiently transfected in human HepG2 cells assessed as reduction in alpha-smooth muscle actin expression preincubated at 680 nM for 1 hr before TGF-beta stimulation measured after 6 hrs by quantitative real-time PCR analysis. Type of series: cell-based.
Series [20] relates to HepG2. Nature of the series: Inhibition of TGF-beta-induced human CTGF promoter activity transiently transfected in human HepG2 cells assessed as reduction in plasminogen activator inhibitor-1 expression preincubated at 680 nM for 1 hr before TGF-beta stimulation measured after 6 hrs by quantitative real-time PCR analysis. Type of series: cell-based.
Series [21] concerns HepG2. Nature of the series: Inhibition of TGF-beta-induced human CTGF promoter activity transiently transfected in human HepG2 cells assessed as CTGF protein expression preincubated at 407 nM for 1 hr before TGF-beta stimulation measured after 8 hrs by Western blot analysis. It is filed as cell-based.
The test system of series [22] is HepG2. Nature of the series: Inhibition of TGF-beta-induced human CTGF promoter activity transiently transfected in human HepG2 cells assessed as CTGF expression preincubated at 680 nM for 1 hr before TGF-beta stimulation measured after 4 hrs by quantitative real-time PCR analysis. Type of series: cell-based.
Series [23] has as its system HepG2. Nature of the series: Inhibition of TGF-beta-induced human CTGF promoter activity transiently transfected in human HepG2 cells assessed as reduction in mmp2 expression preincubated at 680 nM for 1 hr before TGF-beta stimulation measured after 6 hrs by quantitative real-time PCR analysis. Type of series: cell-based.
In series [24] the test system is MDA-MB-231. Put plainly: Antimigratory activity against human MDA-MB-231 cells assessed as reduction in formation of tubule-like structures at 136 nM after 16 hrs by matrigel assay relative to control. It is filed as functional. The arrangement: scale not given: the % may be the effect or the level left.
Series [25] relates to HepG2. Nature of the series: Inhibition of TGF-beta-induced human CTGF promoter activity transiently transfected in human HepG2 cells assessed as reduction in plasminogen activator inhibitor-1 expression preincubated at 700 nM for 1 hr before TGF-beta stimulation measured after 6 hrs by quantitative real-time PCR analysis. It is filed as cell-based.
The subject of series [26] is HepG2. Put plainly: Inhibition of TGF-beta-induced human CTGF promoter activity transiently transfected in human HepG2 cells assessed as CTGF expression preincubated at 700 nM for 1 hr before TGF-beta stimulation measured after 4 hrs by quantitative real-time PCR analysis. Type of series: cell-based.
For series [27], the system named is HepG2. Nature of the series: Inhibition of TGF-beta-induced human CTGF promoter activity transiently transfected in human HepG2 cells assessed as reduction in mmp2 expression preincubated at 700 nM for 1 hr before TGF-beta stimulation measured after 6 hrs by quantitative real-time PCR analysis. It is filed as cell-based.
For series [28], the system named is HepG2. Put plainly: Inhibition of TGF-beta-induced human CTGF promoter activity transiently transfected in human HepG2 cells assessed as CTGF protein expression preincubated at 714 nM for 1 hr before TGF-beta stimulation measured after 8 hrs by Western blot analysis. Type of series: cell-based.
Series [29] concerns HepG2. Nature of the series: Inhibition of TGF-beta-induced human CTGF promoter activity transiently transfected in human HepG2 cells assessed as reduction in tgf-beta expression preincubated at 700 nM for 1 hr before TGF-beta stimulation measured after 6 hrs by quantitative real-time PCR analysis. Type of series: cell-based.
For series [30], the system named is HepG2. Nature of the series: Inhibition of TGF-beta-induced human CTGF promoter activity transiently transfected in human HepG2 cells assessed as reduction in alpha-smooth muscle actin expression preincubated at 700 nM for 1 hr before TGF-beta stimulation measured after 6 hrs by quantitative real-time PCR analysis. Type of series: cell-based.
Series [31] concerns HepG2. Nature of the series: Inhibition of TGF-beta-induced human CTGF promoter activity transiently transfected in human HepG2 cells assessed as reduction in type 1 collagen alpha1 expression preincubated at 700 nM for 1 hr before TGF-beta stimulation measured after 6 hrs by quantitative real-time PCR analysis. Type of series: cell-based.
Series [32] concerns MDA-MB-231. Nature of the series: Cytotoxicity against human MDA-MB-231 cells at 1.4 uM after 48 hrs by XTT assay. Type of series: cell-based. Conditions: mda-mb-231, 48 h.
In series [33] the test system is MDA-MB-231. Put plainly: Antimigratory activity against human MDA-MB-231 cells assessed as reduction in formation of tubule-like structures at 568 nM after 16 hrs by matrigel assay relative to control. Type of series: functional. The arrangement: scale not given: the % may be the effect or the level left.
Series [34] has as its system HepG2. Put plainly: Cytotoxicity against human HepG2 cells at 1.4 uM after 48 hrs by XTT assay. It is filed as cell-based. Conditions: hepg2, 48 h.

For `c1ccc(-c2n[nH]cc2-c2ccnc3ccccc23)nc1`, the Activity with MDA-MB-231 [1] is listed as 30%.
As to `C/C1=C\CCC(C)C(C)OC(=O)Cc2cc(O)cc(O)c2C1=O` (stereo unspecified), the inhibition result in the series with HepG2 [2], in the series on HepG2 [6], with HepG2 [7], with HepG2 [9], with HepG2 [10] and in the series with HepG2 [11] was “Active” in each case. For the same molecule, in the series on HepG2 [14], the inhibition entry is “Active”. Besides, the results for the Activity result in the series on HepG2 [3], in the series on MDA-MB-231 [5] and in the series with MDA-MB-231 [15] were “Non-toxic”, “Dose-dependent effect” and “Non-toxic”, respectively. Further, the result in the series with MDA-MB-231 [4] was Active. Besides, the inhibition result in the series with HepG2 [8] is “inactive”. The inhibition entry with HepG2 [12] was “Dose-dependent effect”. The IC50 is 1.8 µM in [13] and greater than 2.2 µM in series [16].
For `C[C@H]1CCC/C=C/C(=O)c2c(O)cc(O)cc2CC(=O)O1` [DEHYDROCURVULARIN], the IC50 in series [13] was found to be 4.4 µM; in [16] it was 1.7 µM.
Take `C/C1=C\CCC(C)(O)C(C)OC(=O)Cc2c(Cl)c(O)cc(O)c2C1=O` (stereo unspecified): the inhibition result in the series on HepG2 [17], in the series with HepG2 [18], in the series on HepG2 [19], with HepG2 [20], in the series with HepG2 [21] and in the series with HepG2 [22] was “Active” in each case. For the same molecule, the inhibition result in the series on HepG2 [23] was “Active”. Besides, the results for the Activity entry in the series on MDA-MB-231 [5] and in the series on MDA-MB-231 [24] were “Dose-dependent effect” and greater than 70%, respectively. For the same molecule, in the series with HepG2 [12], the inhibition entry is “Dose-dependent effect”. The IC50 in series [13] and in series [16] was 0.136 µM in each case.
Consider `C[C@H]1CCCCCC(=O)c2c(O)cc(O)cc2CC(=O)O1`, for which the IC50 in series [13] was determined as 86.4 µM; in [16], 34.2 µM.
As to `C/C1=C\CCC(C)C(C)OC(=O)Cc2c(Cl)c(O)cc(O)c2C1=O` (stereo unspecified), the inhibition result in the series on HepG2 [25], in the series on HepG2 [26], in the series on HepG2 [27], in the series on HepG2 [29], in the series with HepG2 [30] and in the series with HepG2 [31] was “Active” each time. Further, the Activity entry is “Dose-dependent effect” in the series on MDA-MB-231 [5], “Non-toxic” in the series with MDA-MB-231 [32], greater than 70% in the series on MDA-MB-231 [33] and “Non-toxic” with HepG2 [34]. Moreover, the inhibition entry in the series on HepG2 [28] is “inactive”. Also, the inhibition entry in the series with HepG2 [12] was “Dose-dependent effect”. Besides, the IC50 was 0.336 µM in series [13] and 0.21 µM in series [16].

The values are drawn from ChEMBL document CHEMBL3400091, “4-Dechloro-14-deoxy-oxacyclododecindione and 14-deoxy-oxacylododecindione, two inhibitors of inducible connective tissue growth factor expression from the imperfect fungus Exserohilum rostratum” (Bioorg Med Chem, 2015).
